# Source: patent US8614222B2, “Methods of preventing and treating low bone mass diseases” (The Trustees of Columbia University in the City of New York, priority 2008, dated 2013)
# Legend:
# Assay type in all cases: in vivo
# brain serotonin = test: Brain serotonin content in ovariectomized mice; conditions: OVX mice
# Method: Six-week-old wild-type virgin female mice were purchased from the Jackson Laboratories and subjected to either bilateral ovariectomy or a sham operation after a few days of acclimatization to the animal facility post-arrival. Ovariectomy was performed under isofluorane anesthesia through dorsal, subrenal incision. In the first experiment, mice were treated from day 1 post-ovariectomy for 4 weeks with LP-533,401 (1, 10, 100 or 250 mg/kg/day) or vehicle. In the second experiment, mice were treated for 4 weeks from 2 to 6-weeks post-ovariectomy with LP-533,401 (250 mg/kg/day) or vehicle. In the third set of experiments, mice were treated for 6 weeks from 6 to 12-weeks post-ovariectomy with LP-533,401 (250 mg/kg/day) or vehicle. […]
# Blood samples were collected from mice and rats through cardiac puncture under isoflurane anesthesia, kept on ice for 5 min, and centrifuged at 13,000 rpm for 10 min at 4° C. […] Serum serotonin levels were quantified by ELISA (Serotonin kit, Fitzgerald) while serotonin levels in brain regions were quantified by HPLC as described previously (Mann et al., 1992, Arch. Gen. Psychiatry 49:442-446). Serum levels of total deoxypyridinoline (DPD) cross-links was measured using the Merta tDPD kit (Quidel corp. Sandiago, Calif.) and Osteocalcin using Rat and Mouse Ocn IRMA kit.
# ovariectomized mice [1] = test: Bone histomorphometry in ovariectomized mice, preventive and curative regimen
# Method: Six-week-old wild-type virgin female mice were purchased from the Jackson Laboratories and subjected to either bilateral ovariectomy or a sham operation after a few days of acclimatization to the animal facility post-arrival. Ovariectomy was performed under isofluorane anesthesia through dorsal, subrenal incision. In the first experiment, mice were treated from day 1 post-ovariectomy for 4 weeks with LP-533,401 (1, 10, 100 or 250 mg/kg/day) or vehicle. In the second experiment, mice were treated for 4 weeks from 2 to 6-weeks post-ovariectomy with LP-533,401 (250 mg/kg/day) or vehicle. […] LP-533,401 was dissolved in polyethylene glycol:5% dextrose (40:60) and given daily by gavage at the doses indicated. Animals were observed daily for any behavioral abnormalities. Mice were sacrificed at the end of the experimental regimen and processed for the skeletal and physiological analysis.
# (§1) Bone histomorphometry was performed as previously described (Duey et al., 2000, Cell 100:197-207; Takeda et al., 2002, Cell 111:305-317; Parfitt et al., 1987, J. Bone Miner. Res. 2:595-610). Briefly, lumbar vertebrae were dissected, fixed for 24 hr in 10% formalin, dehydrated in graded ethanol series, and embedded in methyl methacrylate resin according to standard protocols (Parfitt et al., 1987, J. Bone Miner. Res. 2:595-610). Von Kossa/Von Gieson staining was performed using 7 μm sections for bone volume over tissue volume (BV/TV) measurement. Bone formation rate (BFR) was analyzed by the calcein double-labeling method (Ducy et al., 2000, Cell 100:197-207). Calcein (Sigma Chemical Co., St. Louis, Mo.) was dissolved in calcein buffer (0.15 M NaCl, 2% NaHCO3) and injected twice at 0.125 mg/g body weight on day 1 and 4, and then mice were killed on day 6. Unstained 4 μm sections were used for bone formation rate (BFR) measurements. For the analysis of parameters of osteoblasts and osteoclasts, 4 μm sections were stained with toluidine blue and tartrate-resistant acid phosphatase (TRAP), respectively (2). Histomorphometric analyses were performed using the Osteomeasure Analysis System (Osteometrics, Atlanta, Ga.).
# Blood samples were collected from mice and rats through cardiac puncture under isoflurane anesthesia, kept on ice for 5 min, and centrifuged at 13,000 rpm for 10 min at 4° C. Serum samples were stored at −80° C. until hormonal analyses were performed. Serum serotonin levels were quantified by ELISA (Serotonin kit, Fitzgerald) while serotonin levels in brain regions were quantified by HPLC as described previously (Mann et al., 1992, Arch. Gen. Psychiatry 49:442-446). Serum levels of total deoxypyridinoline (DPD) cross-links was measured using the Merta tDPD kit (Quidel corp. Sandiago, Calif.) and Osteocalcin using Rat and Mouse Ocn IRMA kit.
# naive mice = test: Histomorphometric analysis of vertebrae of naive mice; conditions: naive mice (FIG. 20A: 250 mg/kg/day orally, 6 weeks)
# Method: FIG. 20. (A) Histomorphometric analysis of vertebrae of 12 week-old mice that received vehicle or LP-533,401 (250 mg/kg/day, orally) for 6 weeks. (B-E) Gastrointestinal transit rate (B), colon motility (C), efficiency of gastric emptying (D) and blood coagulation rate (E) in 18 week-old ovariectomized (OVX) mice that received orally vehicle or indicated doses of LP-533,401 for 6 weeks.
# as §1, with “For the analysis of parameters of osteoblasts and osteoclasts, 4 μm sections were stained with toluidine blue and tartrate-resistant acid phosphatase (TRAP), respectively (2). Histomorphometric analyses were performed using the Osteomeasure Analysis System (Osteometrics, Atlanta, Ga.).” left out
# ovariectomized mice [2] = test: Gastrointestinal homeostasis and blood coagulation in ovariectomized mice; conditions: OVX mice, 6 weeks
# [3] = OVX mice, 250 mg/kg/day for 4 weeks from week 2 post-ovariectomy
# [4] = OVX mice, day 1 to 28 post-ovariectomy
smiles,measurement,setting,value
"Nc1nc(OC(c2ccc(-c3cccc(F)c3)cc2)C(F)(F)F)cc(-c2ccc(C[C@H](N)C(=O)O)cc2)n1 (stereo partly drawn) [LP-533401, (2S)-2-amino-3-(4-(2-amino-6-(2,2,2-trifluoro-1-(3′-fluorobiphenyl-4-yl)ethoxy)pyrimidin-4-yl)phenyl)propanoic acid]",brain serotonin content,brain serotonin; 250 mg/kg/day for 4 weeks from week 2 post-ovariectomy,unaffected
same,brain serotonin content,brain serotonin; day 1 to 28 post-ovariectomy,unaffected
same,bone mass versus sham-operated mice,"ovariectomized mice [1]; OVX mice, 25 mg/kg/day for 6 weeks from week 6 post-ovariectomy",similar
same,bone mass,ovariectomized mice [1]; [3],normalized
same,bone resorption parameters,ovariectomized mice [1]; [3],increased
same,bone mass versus sham-operated mice,"ovariectomized mice [1]; OVX mice, 100 or 250 mg/kg/day for 6 weeks from week 6 post-ovariectomy",significantly higher
same,bone mass versus vehicle-treated ovariectomized mice,"ovariectomized mice [1]; OVX mice, 250, 100 or 10 mg/kg once daily, day 1 to 28 post-ovariectomy",higher
same,Cyclin D1 expression in the bones,ovariectomized mice [1]; [4],increase
same,bone formation rate,ovariectomized mice [1]; [4],major increase
same,osteoblast numbers,ovariectomized mice [1]; [4],major increase
same,osteocalcin serum levels,ovariectomized mice [1]; [4],major increase
same,increase in bone mass,naive mice,also observed in naive mice
same,coagulation rates versus vehicle,ovariectomized mice [2],similar
same,colonic mobility,ovariectomized mice [2]; up to 250 mg/kg/day,None of these parameters were affected
same,gastric emptying,ovariectomized mice [2]; up to 250 mg/kg/day,None of these parameters were affected
same,total gastrointestinal transit,ovariectomized mice [2]; up to 250 mg/kg/day,None of these parameters were affected
